Results published in ChEMBL document CHEMBL3124792, “Discovery and preclinical characterization of the cyclopropylindolobenzazepine BMS-791325, a potent allosteric inhibitor of the hepatitis C virus NS5B polymerase” (J Med Chem, 2014).
In brackets after ≈: the same amount, converted by molar mass.

Tests used:
Cytochrome P450 2C19 = Cytochrome P450 2C19 (Homo sapiens, UniProt P33261); assay: Inhibition of CYP2C19 in human liver microsomes after 30 mins in presence of NADPH; assay type: ADME
Cytochrome P450 2C9 = Cytochrome P450 2C9 (Homo sapiens, UniProt P11712); assay: Inhibition of CYP2C9 in human liver microsomes after 30 mins in presence of NADPH; assay type: ADME
Hepatitis C virus [1] = assay: Antiviral activity against Hepatitis C virus Con1 genotype 1b infected in human HuH7 cells after 3 days by FRET assay; assay type: functional, organism-based, Hepacivirus hominis; details: isolate Con1, Huh-7, 72 h
HepG2 = assay: Cytotoxicity against human HepG2 cells; assay type: cell-based
[2] = target: Voltage-gated inwardly rectifying potassium channel KCNH2 (Homo sapiens, UniProt Q12809); assay: Inhibition of human ERG by fluorescence-based thallium flux assay
[3] = target: T1, Nuclear receptor subfamily 1 group I member 2 (Homo sapiens, UniProt O75469); assay: Transactivation of human PXR expressed in human HepG2 cells by luciferase reporter gene assay; assay type: cell-based
T1 sequence (O75469 whole entry): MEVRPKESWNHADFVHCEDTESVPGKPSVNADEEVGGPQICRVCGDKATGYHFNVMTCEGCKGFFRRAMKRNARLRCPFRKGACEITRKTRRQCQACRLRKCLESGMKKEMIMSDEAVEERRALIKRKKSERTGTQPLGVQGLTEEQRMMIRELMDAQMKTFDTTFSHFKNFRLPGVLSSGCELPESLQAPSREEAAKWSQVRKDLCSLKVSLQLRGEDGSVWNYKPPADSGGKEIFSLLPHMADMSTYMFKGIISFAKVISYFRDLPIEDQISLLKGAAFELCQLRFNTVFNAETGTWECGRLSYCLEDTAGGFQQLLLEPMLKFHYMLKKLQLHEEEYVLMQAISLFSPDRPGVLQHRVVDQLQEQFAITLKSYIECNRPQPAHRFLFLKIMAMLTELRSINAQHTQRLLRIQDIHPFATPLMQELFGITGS

Cytochrome P450 3A4 = Cytochrome P450 3A4 (Homo sapiens, UniProt P08684); assay: Inhibition of CYP3A4 in human liver microsomes using benzyloxyresorufin as substrate after 30 mins in presence of NADPH; assay type: ADME
[4] = Permeability of the compound at pH 7.4 by PAMPA; assay type: physicochemical; details: read-out: permeability
[5] = target: Sodium channel protein type 5 subunit alpha (Homo sapiens, UniProt Q14524); assay: Inhibition of human NaV1.5 expressed in HEK293 cells by fluorescence-based thallium flux assay; assay type: cell-based
Cytochrome P450 1A2 = target: T2, Cytochrome P450 1A2 (Homo sapiens, UniProt P05177); assay: Inhibition of CYP1A2 in human liver microsomes after 30 mins in presence of NADPH; assay type: ADME
T2 sequence (P05177 whole entry): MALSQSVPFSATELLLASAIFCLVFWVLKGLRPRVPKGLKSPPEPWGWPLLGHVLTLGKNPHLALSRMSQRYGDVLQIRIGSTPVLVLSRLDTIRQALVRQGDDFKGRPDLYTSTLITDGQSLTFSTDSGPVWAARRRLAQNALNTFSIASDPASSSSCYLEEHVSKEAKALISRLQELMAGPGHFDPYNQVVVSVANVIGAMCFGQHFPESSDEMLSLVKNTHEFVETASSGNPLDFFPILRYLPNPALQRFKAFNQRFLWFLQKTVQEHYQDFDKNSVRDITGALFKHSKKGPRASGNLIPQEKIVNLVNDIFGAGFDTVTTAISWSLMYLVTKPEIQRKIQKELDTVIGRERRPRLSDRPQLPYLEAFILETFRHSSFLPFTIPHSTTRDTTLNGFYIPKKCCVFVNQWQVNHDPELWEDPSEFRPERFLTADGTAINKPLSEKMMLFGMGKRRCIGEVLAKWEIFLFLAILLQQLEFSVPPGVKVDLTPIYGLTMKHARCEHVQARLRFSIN

Hepatitis C virus [6] = assay: Antiviral activity against Hepatitis C virus H77c genotype 1a infected in human HuH7 cells after 3 days by FRET assay; assay type: functional, organism-based, Hepacivirus hominis; details: genotype 1a H77, Huh-7, 72 h
Cytochrome P450 2D6 = Cytochrome P450 2D6 (Homo sapiens, UniProt P10635); assay: Inhibition of CYP2D6 in human liver microsomes after 30 mins in presence of NADPH; assay type: ADME
[7] = Solubility of the compound in amorphous form in phosphate buffer at pH 6.5; assay type: physicochemical
[8] = Cytotoxicity against human HuH7 cells by Alamar blue assay; assay type: cell-based; details: Huh-7 cells
PXR (NR1I2) = target: T3, PXR (NR1I2) (Homo sapiens, UniProt O75469); assay: Transactivation of human PXR expressed in human HepG2 cells by luciferase reporter gene assay relative to control; assay type: cell-based; details: HepG2 cells expressing human PXR, read-out: %max
T3 sequence (O75469 whole entry): T1 sequence (O75469 whole entry)

Hepatitis C virus [9] = assay: Ratio of EC50 for Hepatitis C virus Con1 genotype 1b in presence of 40% human serum to EC50 for Hepatitis C virus Con1 genotype 1b; assay type: functional, Hepacivirus hominis, isolate Con1
Hepatitis C virus [10] = assay: Antiviral activity against Hepatitis C virus Con1 genotype 1b infected in human HuH7 cells after 3 days by FRET assay in presence of 40% human serum; assay type: functional, organism-based, Hepacivirus hominis; details: isolate Con1, Huh-7, 72 h
Liver microsome [11] = details: rat, microsomes
Liver microsome [12] = details: human, microsomes

Cytochrome P450 3A4, sequence (P08684 whole entry): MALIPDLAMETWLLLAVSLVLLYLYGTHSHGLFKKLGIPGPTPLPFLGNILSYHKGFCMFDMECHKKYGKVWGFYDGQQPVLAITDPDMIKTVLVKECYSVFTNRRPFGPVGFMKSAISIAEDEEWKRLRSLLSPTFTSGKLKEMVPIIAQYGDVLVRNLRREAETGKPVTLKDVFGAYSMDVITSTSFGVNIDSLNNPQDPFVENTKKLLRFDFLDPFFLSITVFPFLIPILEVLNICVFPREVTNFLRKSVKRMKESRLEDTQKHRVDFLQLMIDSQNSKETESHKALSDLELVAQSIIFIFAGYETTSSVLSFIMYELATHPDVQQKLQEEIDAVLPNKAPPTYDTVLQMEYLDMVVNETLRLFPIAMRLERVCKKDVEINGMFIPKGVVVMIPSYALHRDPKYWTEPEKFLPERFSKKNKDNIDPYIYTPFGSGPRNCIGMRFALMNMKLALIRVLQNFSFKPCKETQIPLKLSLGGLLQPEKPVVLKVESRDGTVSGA
Cytochrome P450 2C9, sequence (P11712 whole entry): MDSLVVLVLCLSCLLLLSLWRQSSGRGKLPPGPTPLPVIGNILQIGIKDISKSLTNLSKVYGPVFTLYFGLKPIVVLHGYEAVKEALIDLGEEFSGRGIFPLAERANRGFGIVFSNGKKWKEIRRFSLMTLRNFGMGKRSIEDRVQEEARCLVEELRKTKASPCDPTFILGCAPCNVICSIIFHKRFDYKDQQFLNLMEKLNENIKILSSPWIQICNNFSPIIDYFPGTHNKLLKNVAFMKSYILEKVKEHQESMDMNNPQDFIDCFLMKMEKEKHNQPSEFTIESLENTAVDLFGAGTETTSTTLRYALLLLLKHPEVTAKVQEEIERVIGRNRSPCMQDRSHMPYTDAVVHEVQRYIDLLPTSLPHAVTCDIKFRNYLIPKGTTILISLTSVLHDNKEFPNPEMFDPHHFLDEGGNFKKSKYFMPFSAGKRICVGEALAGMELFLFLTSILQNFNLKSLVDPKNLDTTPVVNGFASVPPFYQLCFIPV
Cytochrome P450 2C19, sequence (P33261 whole entry): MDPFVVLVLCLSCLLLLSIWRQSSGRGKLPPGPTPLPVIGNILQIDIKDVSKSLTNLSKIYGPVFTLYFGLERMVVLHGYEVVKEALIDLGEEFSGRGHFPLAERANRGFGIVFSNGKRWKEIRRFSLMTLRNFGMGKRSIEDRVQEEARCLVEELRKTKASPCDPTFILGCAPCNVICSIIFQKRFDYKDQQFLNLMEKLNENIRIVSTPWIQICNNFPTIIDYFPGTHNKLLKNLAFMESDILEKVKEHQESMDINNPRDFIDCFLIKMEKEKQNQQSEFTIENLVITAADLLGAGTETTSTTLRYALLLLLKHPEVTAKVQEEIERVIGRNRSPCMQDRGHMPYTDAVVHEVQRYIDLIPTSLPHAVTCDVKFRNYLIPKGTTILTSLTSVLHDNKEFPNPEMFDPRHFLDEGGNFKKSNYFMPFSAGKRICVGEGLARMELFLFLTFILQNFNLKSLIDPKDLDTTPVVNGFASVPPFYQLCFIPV
Cytochrome P450 2D6, sequence (P10635 whole entry): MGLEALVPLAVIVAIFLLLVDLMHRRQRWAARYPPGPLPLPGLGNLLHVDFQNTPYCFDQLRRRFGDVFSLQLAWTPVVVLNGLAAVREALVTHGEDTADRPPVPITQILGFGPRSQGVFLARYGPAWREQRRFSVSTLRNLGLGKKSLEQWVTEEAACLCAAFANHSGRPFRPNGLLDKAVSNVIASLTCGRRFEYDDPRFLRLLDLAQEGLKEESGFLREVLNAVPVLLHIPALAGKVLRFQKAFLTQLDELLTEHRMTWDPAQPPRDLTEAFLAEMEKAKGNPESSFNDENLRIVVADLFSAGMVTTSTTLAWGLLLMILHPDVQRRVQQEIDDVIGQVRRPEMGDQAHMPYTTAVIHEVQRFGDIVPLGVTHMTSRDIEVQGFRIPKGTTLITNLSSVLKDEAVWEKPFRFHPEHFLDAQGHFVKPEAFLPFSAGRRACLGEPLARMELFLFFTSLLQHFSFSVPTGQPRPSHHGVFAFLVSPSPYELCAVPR
Voltage-gated inwardly rectifying potassium channel KCNH2, sequence (Q12809 whole entry): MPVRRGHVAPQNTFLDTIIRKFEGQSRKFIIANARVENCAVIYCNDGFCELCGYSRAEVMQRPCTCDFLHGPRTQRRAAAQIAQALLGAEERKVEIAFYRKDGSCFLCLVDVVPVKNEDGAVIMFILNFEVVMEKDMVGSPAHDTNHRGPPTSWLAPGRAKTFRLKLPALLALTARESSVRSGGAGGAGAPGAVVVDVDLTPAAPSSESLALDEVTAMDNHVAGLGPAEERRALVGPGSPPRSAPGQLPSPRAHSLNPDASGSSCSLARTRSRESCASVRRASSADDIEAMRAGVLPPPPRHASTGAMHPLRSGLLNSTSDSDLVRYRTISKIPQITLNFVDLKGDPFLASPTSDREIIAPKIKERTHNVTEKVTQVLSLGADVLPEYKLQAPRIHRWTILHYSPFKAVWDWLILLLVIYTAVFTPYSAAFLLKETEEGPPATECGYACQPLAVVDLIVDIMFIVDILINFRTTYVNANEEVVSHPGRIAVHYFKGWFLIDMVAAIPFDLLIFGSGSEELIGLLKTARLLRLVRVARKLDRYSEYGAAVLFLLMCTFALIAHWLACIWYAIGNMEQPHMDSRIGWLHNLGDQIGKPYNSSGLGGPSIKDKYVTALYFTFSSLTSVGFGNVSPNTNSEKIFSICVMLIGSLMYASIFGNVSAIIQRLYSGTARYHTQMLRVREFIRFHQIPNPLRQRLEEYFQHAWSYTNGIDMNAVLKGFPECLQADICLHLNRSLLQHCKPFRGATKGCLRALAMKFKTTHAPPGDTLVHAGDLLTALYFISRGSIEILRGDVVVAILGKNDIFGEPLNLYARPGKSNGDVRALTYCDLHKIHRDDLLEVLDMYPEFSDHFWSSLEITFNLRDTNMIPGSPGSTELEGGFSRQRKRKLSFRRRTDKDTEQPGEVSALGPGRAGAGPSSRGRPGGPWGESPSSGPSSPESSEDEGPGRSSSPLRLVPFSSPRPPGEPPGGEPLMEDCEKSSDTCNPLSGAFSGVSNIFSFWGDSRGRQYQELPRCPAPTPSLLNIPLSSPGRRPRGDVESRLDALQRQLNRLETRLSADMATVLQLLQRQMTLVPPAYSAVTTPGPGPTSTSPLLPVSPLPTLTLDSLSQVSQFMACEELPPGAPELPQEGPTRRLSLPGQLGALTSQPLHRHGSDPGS

Structure (SMILES)	EC50 (Cytochrome P450 2C19) [µM]	EC50 (Cytochrome P450 2C9) [µM]	EC50 (Hepatitis C virus [1]) [µM]	EC50 (HepG2) [µM]	EC50 [2] [µM]	EC50 [3] [µM]	EC50 (Cytochrome P450 3A4) [µM]	Papp [4] [×10⁻⁶ cm/s]	EC50 [5] [µM]	EC50 (Cytochrome P450 1A2) [µM]	EC50 (Hepatitis C virus [6]) [µM]	EC50 (Cytochrome P450 2D6) [µM]	solubility [7] [µg/mL]	CC50 [8] [µM]	Emax (PXR (NR1I2)) [%]	Ratio EC50 (Hepatitis C virus [9])	EC50 (Hepatitis C virus [10]) [µM]	Stability (Liver microsome [11]) [%]	Stability (Liver microsome [12]) [%]
CCN1CC2CC(C1)N2C(=O)[C@]12C[C@H]1c1cc(OC)ccc1-c1c(C3CCCCC3)c3ccc(C(=O)NS(=O)(=O)N(C)C)cc3n1C2	> 40	> 40	0.004	19	6	> 50	9	27	29	> 40	0.004	> 40	450 (≈ 682 µM)						
COC[C@H]1CN(C(=O)[C@]23C[C@H]2c2cc(OC)ccc2-c2c(C4CCCCC4)c4ccc(C(=O)NS(=O)(=O)N(C)C)cc4n2C3)CCO1			0.012			> 50					0.006			> 10	12	3	0.036		
COc1ccc2c(c1)C1CC1(C(=O)N1C3CNCC1C3)Cn1c-2c(C2CCCCC2)c2ccc(C(=O)NS(=O)(=O)N(C)C)cc21 (racemic)	> 40	> 40	0.08	> 50	32	> 50	> 40	6		> 40	0.023	> 40		> 10			0.094	100	97
COc1ccc2c(c1)C1CC1(C(=O)N1C3CC1CN(Cc1ccccc1)C3)Cn1c-2c(C2CCCCC2)c2ccc(C(=O)NS(=O)(=O)N(C)C)cc21 (racemic)	31	7	0.162	22	> 80	2	13	56		> 13	0.035	> 40		> 10	22			100	80
